According to patent US9593149B2, “Amylin and calcitonin receptor agonist” (Novo Nordisk A/S, priority 2014, dated 2017):
pEC50: −log10 of the molar value. Numbered stars: 1 amine (or outer) side, 2 acyl side, 3 side chain; on linkers, the order of the positions; unused ones are H or OH. Side chains are listed from the residue outwards. Peptide text beside a SMILES is read from it. * marks the point of attachment. C20 diacid = O=C(O)CCCCCCCCCCCCCCCCCCC(=O)*; C18 diacid = O=C(O)CCCCCCCCCCCCCCCCC(=O)*; γGlu = O=C(O)[C@H](CCC(=O)[*:2])N[*:1]

Experiments:
[1] = Assay (XVII) T½ and subcutaneous bioavailability in Beagle dogs; type: in vivo
Protocol: The area under the plasma concentration versus time curve (AUC, [time×concentration]) was calculated (by the Pharsight programme) after both subcutaneous administration and intravenous administration, typically until 240-288 hours post dosing, or until last measured concentration. The AUC was calculated by extrapolating to infinity and dose normalized. The absolute bioavailability (F %) was then calculated based on the dose-corrected AUC values, namely as AUC/Dsc divided by AUC/Div×100, where Dsc is the subcutaneous dose per kg, and Div the dose per kg given intravenously. Assay (XVII)—Determination of T½ and Subcutaneous Bioavailability in Beagle Dogs […]
By protraction is meant the prolongation of the time in the body and thereby the time of action of the mimylin derivatives. This was done in PK studies, where the terminal half-life of the derivative in question was determined following i.v. administration. By terminal half-life is generally meant the period of time it takes to halve a certain plasma concentration, measured after the initial distribution phase. […]
The plasma concentration of the respective mimylin derivative was analysed using LC-MS. Individual plasma concentration-time profiles were analysed by a non-compartmental model in Phoenix WinNonlin version 6.3 (Pharsight Inc., Mountain View, Calif., USA). […]

[2] = biological target: T1, human amylin 3(a) receptor (human calcitonin receptor + RAMP-3), BHK570 cells (Homo sapiens, UniProt O60896+P30988); test: Assay (II)a functional CRE-luciferase assay with albumin, human amylin receptor; type: cell-based; details: Tested with HSA; read-out: hAmylin-R funct. EC50
T1 construct: host or cells: BHK570
T1 sequence (O60896 24-148): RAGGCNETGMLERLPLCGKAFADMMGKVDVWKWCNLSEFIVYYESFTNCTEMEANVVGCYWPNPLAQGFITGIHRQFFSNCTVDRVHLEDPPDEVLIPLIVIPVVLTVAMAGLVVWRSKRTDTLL
T1 sequence (P30988 25-474): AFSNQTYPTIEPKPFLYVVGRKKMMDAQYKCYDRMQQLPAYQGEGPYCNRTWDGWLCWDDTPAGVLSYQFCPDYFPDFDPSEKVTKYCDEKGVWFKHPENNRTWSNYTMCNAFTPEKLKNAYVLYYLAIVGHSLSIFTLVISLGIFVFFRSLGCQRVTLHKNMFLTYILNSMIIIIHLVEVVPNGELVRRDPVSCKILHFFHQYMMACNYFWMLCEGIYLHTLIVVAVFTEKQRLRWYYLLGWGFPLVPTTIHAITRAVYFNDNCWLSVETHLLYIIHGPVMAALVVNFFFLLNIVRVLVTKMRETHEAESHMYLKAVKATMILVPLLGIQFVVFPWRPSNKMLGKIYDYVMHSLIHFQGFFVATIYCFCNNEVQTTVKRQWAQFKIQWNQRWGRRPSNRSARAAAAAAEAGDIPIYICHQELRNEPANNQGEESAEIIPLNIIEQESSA
Procedure, shortened: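 BHK570 cells stably carry a CRE-luciferase reporter and the calcitonin receptor; co-transfected RAMP-3 gives the amylin 3(a) receptor line. Cells were treated for 3 h at 37 °C in DMEM with 10% FBS and 10 mM Hepes, pH 7.4. cAMP-driven luciferase was read by LucLite luminescence after 30 min at RT.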

Row | Compound | Subcutaneous bioavailability (%) ([1]; Beagle dogs) | Beagle dogs iv PK, t½ ([1]; i.v., harmonic mean, n = 2) [h] | pEC50 [2]
1 | CC(C)C[C@H](NC(=O)[C@H](C)NC(=O)[C@H](C)NC(=O)[C@@H](NC(=O)[C@H](CO)NC(=O)[C@H](CC(C)C)NC(=O)[C@H](CCC(=O)O)NC(=O)[C@H](CO)NC(=O)[C@H](C)NC(=O)[C@H](CCC(=O)O)NC(=O)CCCCCCCCCCCCCCCCC(=O)O)[C@@H](C)O)C(=O)NCC(=O)N[C@@H](CCCNC(=N)N)C(=O)N[C@@H](CC(C)C)C(=O)N[C@@H](CO)C(=O)N[C@@H](C)C(=O)N[C@@H](CCC(=O)O)C(=O)N[C@@H](CC(C)C)C(=O)N[C@@H](Cc1cnc[nH]1)C(=O)N[C@@H](CCC(=O)O)C(=O)N[C@@H](CC(C)C)C(=O)N[C@@H](C)C(=O)N[C@H](C(=O)N[C@@H](CC(C)C)C(=O)N1CCC[C@H]1C(=O)N[C@@H](CCCNC(=N)N)C(=O)N[C@H](C(=O)N[C@@H](CCC(=O)O)C(=O)N[C@H](C(=O)NCC(=O)N1CCC[C@H]1C(=O)N[C@@H](CCC(=O)O)C(=O)N[C@@H](CO)C(=O)N1CCC[C@H]1C(N)=O)[C@@H](C)O)[C@@H](C)O)[C@@H](C)O [Ex. #2, [N-terminal(C18 diacid)]mimylin] ({C18 diacid}-EASELSTAALGRLSAELHELATLPRTETGPESP-NH2) | 98 | 95 | 
2 | CC(C)C[C@H](NC(=O)[C@H](CCCNC(=N)N)NC(=O)CNC(=O)[C@H](CC(C)C)NC(=O)[C@@H](NC(=O)[C@H](C)NC(=O)[C@@H](NC(=O)[C@H](CO)NC(=O)[C@H](CC(C)C)NC(=O)[C@H](CCC(=O)O)NC(=O)[C@H](CO)NC(=O)[C@H](C)NC(=O)CC[C@H](NC(=O)CCCCCCCCCCCCCCCCCCC(=O)O)C(=O)O)[C@@H](C)O)C(C)C)C(=O)N[C@@H](CO)C(=O)N[C@@H](CCC(N)=O)C(=O)N[C@@H](CCC(=O)O)C(=O)N[C@@H](CC(C)C)C(=O)N[C@@H](Cc1c[nH]cn1)C(=O)N[C@@H](CCC(=O)O)C(=O)N[C@@H](CC(C)C)C(=O)N[C@@H](CCC(N)=O)C(=O)N[C@H](C(=O)N[C@@H](Cc1ccc(O)cc1)C(=O)N1CCC[C@H]1C(=O)N[C@@H](CCCNC(=N)N)C(=O)N[C@H](C(=O)N[C@@H](CCC(=O)O)C(=O)N[C@H](C(=O)NCC(=O)N[C@@H](CO)C(=O)NCC(=O)N[C@H](C(=O)N[C@@H](Cc1ccc(O)cc1)C(N)=O)[C@@H](C)O)[C@@H](C)O)[C@@H](C)O)[C@@H](C)O [compound 114, [N-terminal(C20 diacid-gGlu), des1, 9V, 15Q, 21Q, 23Y, 30S, 31G, 32T, 33Y]mimylin] |  |  | 9.85
3 | CC(=O)N[C@@H](C)C(=O)N[C@@H](CO)C(=O)N[C@@H](CCCCNC(=O)CC[C@H](NC(=O)CCCCCCCCCCCCCCCCCCC(=O)O)C(=O)O)C(=O)N[C@@H](CC(C)C)C(=O)N[C@@H](CO)C(=O)N[C@H](C(=O)N[C@@H](C)C(=O)N[C@@H](C)C(=O)N[C@@H](CC(C)C)C(=O)NCC(=O)N[C@@H](CCCNC(=N)N)C(=O)N[C@@H](CC(C)C)C(=O)N[C@@H](CO)C(=O)N[C@@H](C)C(=O)N[C@@H](CCC(=O)O)C(=O)N[C@@H](CC(C)C)C(=O)N[C@@H](Cc1c[nH]cn1)C(=O)N[C@@H](CCC(=O)O)C(=O)N[C@@H](CC(C)C)C(=O)N[C@@H](C)C(=O)N[C@H](C(=O)N[C@@H](CC(C)C)C(=O)N1CCC[C@H]1C(=O)N[C@@H](CCCNC(=N)N)C(=O)N[C@H](C(=O)N[C@@H](CCC(=O)O)C(=O)N[C@H](C(=O)NCC(=O)N[C@@H](CO)C(=O)NCC(=O)N[C@@H](CO)C(=O)N1CCC[C@H]1C(N)=O)[C@@H](C)O)[C@@H](C)O)[C@@H](C)O)[C@@H](C)O [compound 68, [N-terminal(acetyl), des1, 4K(C20 diacid-gGlu), 30S, 31G]mimylin] (Ac-ASK([γGlu-C20 diacid])LSTAALGRLSAELHELATLPRTETGSGSP-NH2) |  |  | 10.14
